We go through 1 sequence from US4745101A, “Novel peptide having dentinal fluid transport-stimulating activity” (Teikoku Hormone Mfg. Co., Ltd., priority 1985, dated 1988).

Where no end group is shown, it is not given here.

This series in a line: Solubility. It is filed as physicochemical. From the text:
Soluble in water and physiological saline. Insoluble in acetone.

Turning to “GVIAWELQHNQPGRKDSTAG [Peptide of the invention]”, the Solubility entry (in acetone) was “Insoluble”, the Solubility entry (in physiological saline) is recorded as “Soluble” and the Solubility result (in water) is “Soluble”.
